From paper PMC7023430, “4-Aminobenzoic Acid Derivatives: Converting Folate Precursor to Antimicrobial and Cytotoxic Agents” (Biomolecules, 2019) come the findings set out here.

The subject of series [1] is Trichophyton interdigitale 445. Nature of the series: Antifungal microdilution broth method, T. interdigitale. The series is classed as cell-based. The method in brief: (§1)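 MICs were scored by eye in duplicate runs, accepted when the two differed by no more than one twofold step. Medium was RPMI-1640 (L-glutamine, 2% glucose) buffered with MOPS at pH 7.0, with DMSO-dissolved compounds serially halved per modified EUCAST protocol.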
For orientation: Broth dilution looks for growth in wells or tubes with falling amounts of substance.

The subject of series [2] is Mycobacterium tuberculosis H37Rv (331/88). The series can be described thus: Antimycobacterial micromethod in Šula's medium, M. tuberculosis. The series is classed as cell-based.
Series [3] has as its system Klebsiella pneumoniae D 11750/08. The series can be described thus: Antibacterial microdilution broth method, K. pneumoniae. The settings on record: K. pneumoniae D 11750/08; for MIC KP 24 h: 24 h incubation; for MIC KP 48 h: 48 h incubation.
The test system of series [4] is eight fungal strains. The series can be described thus: Antifungal activity. Format: cell-based. The settings on record: statement over the fungal panel; time not stated. In a few lines:
as §1

Series [5] deals with Candida albicans ATCC 44859. The series can be described thus: Antifungal microdilution broth method, C. albicans. Format: cell-based. The method in brief: as §1
Series [6] has as its system Staphylococcus epidermidis H 6966/08. The series can be described thus: Antibacterial microdilution broth method, S. epidermidis. Format: cell-based. The settings on record: Staphylococcus epidermidis, H6966/08.
Series [7] relates to four Gram-positive and four Gram-negative strains. The series can be described thus: Antibacterial activity. The series is classed as cell-based. The settings on record: time not stated.
Setting [8] is: 336 h, 14 days incubation at 37 °C, read-out: MIC Mtb. 331/88 14 d.
[9] abbreviates: 504 h, 21 days incubation at 37 °C, read-out: MIC Mtb. 331/88 21 d.
The mark [10] stands for this setting: ATCC44859, 24 h, read-out: MIC CA 24 h.
Setting [11] is: ATCC44859, 48 h, read-out: MIC CA 48 h.
[12] abbreviates: S. epidermidis, 24 h incubation, read-out: MIC SE 24 h.
[13] abbreviates: S. epidermidis, 48 h incubation, read-out: MIC SE 48 h.

≈ marks a conversion by molar mass, not a printed value. Like-named read-outs stand apart in the source and are kept apart here.

As for `Cc1ccc(O)c(C=Nc2ccc(C(=O)O)cc2)c1` [1g, 4-[(2-Hydroxy-5-methylbenzylidene)amino]benzoic acid], the MIC in series [1] (72 h, read-out: MIC TI 72 h) was greater than 125 µM; in series [1] (120 h, read-out: MIC TI 120 h), greater than 125 µM; in series [2] (setting [8]), 500 µM (≈ 128 µg/mL); in series [2] (setting [9]) it was 500 µM (≈ 128 µg/mL); in series [5] (setting [10]), greater than 125 µM; in series [5] (setting [11]), greater than 125 µM. Moreover, the MIC in series [6] (setting [12]) was 250 µM (≈ 63.8 µg/mL); in series [6] (setting [13]), 250 µM (≈ 63.8 µg/mL); in series [6] (time not stated, read-out: MIC, S. epidermidis) it was no less than 250 µM. Moreover, in series [3], the “MIC KP 24 h” value is greater than 500 µM. Moreover, the “MIC KP 48 h” value in series [3] was greater than 500 µM. Moreover, the “MIC, antifungal activity” value in series [4] was “not translated into any antifungal action”.

Regarding `O=C(O)c1ccc(N=Cc2c(O)cccc2Cl)cc1` [1k, 4-[(2-Chloro-6-hydroxybenzylidene)amino]benzoic acid], the MIC in series [1] (72 h, read-out: MIC TI 72 h) worked out at 125 µM (≈ 34.5 µg/mL); in series [1] (120 h, read-out: MIC TI 120 h), 125 µM (≈ 34.5 µg/mL); in series [2] (setting [8]), 250 µM (≈ 68.9 µg/mL); in series [2] (setting [9]), 500 µM (≈ 138 µg/mL); in series [5] (setting [10]) it was 125 µM (≈ 34.5 µg/mL); in series [5] (setting [11]), 125 µM (≈ 34.5 µg/mL). Moreover, the MIC in series [6] (setting [12]) and in series [6] (setting [13]) was greater than 500 µM in each case. Also, the “MIC KP 24 h” value in series [3] is reported as greater than 500 µM. The “MIC KP 48 h” value in series [3] is given as greater than 500 µM.

In the case of `O=C(O)c1ccc(N=Cc2cc(Br)ccc2O)cc1` [1d, 4-[(5-Bromo-2-hydroxybenzylidene)amino]benzoic acid], the MIC in series [7] (read-out: MIC, S. epidermidis (1e MRSA, too)) was no less than 62.5 µM; in series [1] (72 h, read-out: MIC TI 72 h), 62.5 µM (≈ 20 µg/mL); in series [1] (120 h, read-out: MIC TI 120 h), 62.5 µM (≈ 20 µg/mL); in series [2] (setting [8]), 250 µM (≈ 80 µg/mL); in series [2] (setting [9]) it was 500 µM (≈ 160 µg/mL); in series [5] (setting [10]), 62.5 µM (≈ 20 µg/mL). Moreover, the MIC in series [5] (setting [11]), in series [6] (setting [12]) and in series [6] (setting [13]) was 62.5 µM (≈ 20 µg/mL) each time. The “MIC KP 24 h” value in series [3] is reported as greater than 250 µM. In addition, in series [3], the “MIC KP 48 h” value is greater than 250 µM.

Consider `O=C(O)c1ccc(N=Cc2cc([N+](=O)[O-])ccc2O)cc1` [1f, 4-[(2-Hydroxy-5-nitrobenzylidene)amino]benzoic acid], for which the MIC was no less than 250 µM in series [7] (Staphylococcus aureus, MRSA, read-out: MIC, multiple Gram-positive strains including MRSA); 500 µM (≈ 143 µg/mL) in series [1] (72 h, read-out: MIC TI 72 h); 500 µM (≈ 143 µg/mL) in series [1] (120 h, read-out: MIC TI 120 h); 250 µM (≈ 71.6 µg/mL) in series [2] (setting [8]); 500 µM (≈ 143 µg/mL) in series [2] (setting [9]); no less than 250 µM in series [4]. Further, the MIC is 500 µM (≈ 143 µg/mL) in series [5] (setting [10]), 500 µM (≈ 143 µg/mL) in series [5] (setting [11]), 250 µM (≈ 71.6 µg/mL) in series [6] (setting [12]) and 250 µM (≈ 71.6 µg/mL) in series [6] (setting [13]). Further, in series [3], the “MIC KP 24 h” value was greater than 500 µM. In series [3], the “MIC KP 48 h” value is greater than 500 µM.

As for `O=C(O)c1ccc(N=Cc2cc(Cl)cc(I)c2O)cc1` [1p, 4-[(5-Chloro-2-hydroxy-3-iodobenzylidene)amino]benzoic acid], the MIC in series [1] (72 h, read-out: MIC TI 72 h) was 7.81 µM (≈ 3.14 µg/mL); in series [1] (120 h, read-out: MIC TI 120 h) it was 7.81 µM (≈ 3.14 µg/mL); in series [2] (setting [8]) it was 250 µM (≈ 100 µg/mL); in series [2] (setting [9]) it was 250 µM (≈ 100 µg/mL); in series [5] (setting [10]) it was 7.81 µM (≈ 3.14 µg/mL); in series [5] (setting [11]), 7.81 µM (≈ 3.14 µg/mL). Besides, the MIC in series [6] (setting [12]) and in series [6] (setting [13]) was 31.2 µM (≈ 12.5 µg/mL) in each case. For the same compound, the “MIC KP 24 h” value in series [3] was 125 µM (≈ 50.2 µg/mL). Further, the “MIC KP 48 h” value in series [3] was 125 µM (≈ 50.2 µg/mL).

`O=C(O)c1ccc(N=Cc2cc(Cl)cc(Br)c2O)cc1` [1o, 4-[(3-Bromo-5-chloro-2-hydroxybenzylidene)amino]benzoic acid]: the MIC was determined as 62.5 µM (≈ 22.2 µg/mL) in series [1] (72 h, read-out: MIC TI 72 h); 62.5 µM (≈ 22.2 µg/mL) in series [1] (120 h, read-out: MIC TI 120 h); 250 µM (≈ 88.6 µg/mL) in series [2] (setting [8]); 500 µM (≈ 177 µg/mL) in series [2] (setting [9]); 31.2 µM (≈ 11.1 µg/mL) in series [5] (setting [10]); 31.2 µM (≈ 11.1 µg/mL) in series [5] (setting [11]). The MIC came out at 15.6 µM (≈ 5.54 µg/mL) in series [6] (setting [12]) and 31.2 µM (≈ 11.1 µg/mL) in series [6] (setting [13]). For the same compound, the “MIC KP 24 h” value in series [3] came out at 500 µM (≈ 177 µg/mL). The “MIC KP 48 h” value in series [3] is recorded as 500 µM (≈ 177 µg/mL).

For `O=C(O)c1ccc(N=Cc2cc(F)ccc2O)cc1` [1b, 4-[(5-Fluoro-2-hydroxybenzylidene)amino]benzoic acid], the MIC in series [1] (72 h, read-out: MIC TI 72 h) is greater than 500 µM; in series [1] (120 h, read-out: MIC TI 120 h), greater than 500 µM; in series [2] (setting [8]) it was 500 µM (≈ 130 µg/mL); in series [2] (setting [9]) it was 500 µM (≈ 130 µg/mL); in series [4], greater than 500 µM; in series [5] (setting [10]), greater than 500 µM. In addition, the MIC in series [5] (setting [11]), in series [6] (setting [12]) and in series [6] (setting [13]) was greater than 500 µM each time. Moreover, the “MIC KP 24 h” value in series [3] is reported as greater than 500 µM. For the same compound, the “MIC KP 48 h” value in series [3] is listed as greater than 500 µM. For the same compound, the “MIC, antifungal activity” value in series [4] was “not translated into any antifungal action”.
